Results reported in ChEMBL document CHEMBL1142252, “Identification of aminopyrazolopyridine ureas as potent VEGFR/PDGFR multitargeted kinase inhibitors” (Bioorg Med Chem Lett, 2008).
≈ marks a conversion by molar mass, not a printed value.

Key:
[1] = Clearance in mouse at 3 mg/kg, iv; format: ADME, organism-based; parameters: dose 3 mg/kg, route intravenous; conditions: in vivo
[2] = Volume of distribution in mouse at 3 mg/kg, iv; format: ADME, organism-based; parameters: dose 3 mg/kg, route intravenous; conditions: in vivo
[3] = AUC in mouse at 10 mg/kg, po; format: ADME, organism-based; parameters: dose 10 mg/kg, route oral; conditions: plasma
[4] = Oral bioavailability in mouse at 10 mg/kg; format: ADME, organism-based; conditions: in vivo
[5] = Half life in mouse at 3 mg/kg, iv; format: ADME, organism-based; parameters: dose 3 mg/kg, route intravenous; conditions: in vivo
[6] = molecular target: T1, Vascular endothelial growth factor receptor 2 (Homo sapiens, UniProt P35968)
Description: Inhibition of KDR by HTRF assay

[7] = molecular target: T1, Vascular endothelial growth factor receptor 2; remark: listed apart in the source
Description: Inhibition of VEGF-induced human KDR phosphorylation in mouse 3T3 cells

Mus musculus = experiment: Inhibition of estradiol-induced uterine edema in mouse at 10 mg/kg, po; conditions: read-out: Inhibition
[8] = Aqueous solubility at pH 7.2; format: physicochemical; conditions: buffer
[9] = molecular target: Macrophage colony-stimulating factor 1 receptor (Homo sapiens, UniProt P07333); experiment: Inhibition of CSF1R by HTRF assay
[10] = molecular target: Mast/stem cell growth factor receptor Kit (Homo sapiens, UniProt P10721); experiment: Inhibition of cKit by HTRF assay
[11] = molecular target: Tyrosine-protein kinase Fyn (Homo sapiens, UniProt P06241); experiment: Inhibition of FYN by HTRF assay
[12] = molecular target: T2, Receptor-type tyrosine-protein kinase FLT3 (Homo sapiens, UniProt P36888); experiment: Inhibition of FLT3 by HTRF assay
T2 sequence (P36888 whole entry): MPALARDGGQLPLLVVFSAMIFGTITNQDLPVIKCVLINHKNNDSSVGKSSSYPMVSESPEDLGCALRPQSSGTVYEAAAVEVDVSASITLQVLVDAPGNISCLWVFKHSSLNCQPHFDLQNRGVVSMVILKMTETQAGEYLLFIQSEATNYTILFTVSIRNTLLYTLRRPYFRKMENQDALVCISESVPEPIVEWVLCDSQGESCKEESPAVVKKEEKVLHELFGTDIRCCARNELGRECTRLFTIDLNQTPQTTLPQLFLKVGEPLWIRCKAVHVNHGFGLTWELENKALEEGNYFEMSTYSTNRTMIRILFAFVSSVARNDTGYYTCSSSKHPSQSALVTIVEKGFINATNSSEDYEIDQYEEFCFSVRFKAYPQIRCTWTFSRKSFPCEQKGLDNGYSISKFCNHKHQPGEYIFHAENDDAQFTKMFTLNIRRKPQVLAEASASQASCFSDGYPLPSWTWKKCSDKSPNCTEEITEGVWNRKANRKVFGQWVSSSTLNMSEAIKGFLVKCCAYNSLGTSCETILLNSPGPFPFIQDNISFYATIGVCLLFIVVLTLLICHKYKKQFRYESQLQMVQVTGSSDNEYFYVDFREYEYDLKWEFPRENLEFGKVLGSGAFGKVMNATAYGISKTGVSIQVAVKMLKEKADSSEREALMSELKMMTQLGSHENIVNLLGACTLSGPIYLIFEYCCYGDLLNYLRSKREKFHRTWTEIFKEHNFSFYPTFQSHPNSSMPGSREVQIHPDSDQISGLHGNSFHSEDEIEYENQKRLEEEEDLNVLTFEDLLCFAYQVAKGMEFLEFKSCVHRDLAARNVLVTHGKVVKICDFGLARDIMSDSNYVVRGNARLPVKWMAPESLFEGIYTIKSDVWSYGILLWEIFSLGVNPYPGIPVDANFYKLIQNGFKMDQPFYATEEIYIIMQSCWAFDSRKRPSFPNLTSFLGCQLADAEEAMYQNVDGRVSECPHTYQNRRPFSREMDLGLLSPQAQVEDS

[13] = molecular target: Vascular endothelial growth factor receptor 1 (Homo sapiens, UniProt P17948); experiment: Inhibition of FLT1 by HTRF assay

T1 sequence (P35968 whole entry): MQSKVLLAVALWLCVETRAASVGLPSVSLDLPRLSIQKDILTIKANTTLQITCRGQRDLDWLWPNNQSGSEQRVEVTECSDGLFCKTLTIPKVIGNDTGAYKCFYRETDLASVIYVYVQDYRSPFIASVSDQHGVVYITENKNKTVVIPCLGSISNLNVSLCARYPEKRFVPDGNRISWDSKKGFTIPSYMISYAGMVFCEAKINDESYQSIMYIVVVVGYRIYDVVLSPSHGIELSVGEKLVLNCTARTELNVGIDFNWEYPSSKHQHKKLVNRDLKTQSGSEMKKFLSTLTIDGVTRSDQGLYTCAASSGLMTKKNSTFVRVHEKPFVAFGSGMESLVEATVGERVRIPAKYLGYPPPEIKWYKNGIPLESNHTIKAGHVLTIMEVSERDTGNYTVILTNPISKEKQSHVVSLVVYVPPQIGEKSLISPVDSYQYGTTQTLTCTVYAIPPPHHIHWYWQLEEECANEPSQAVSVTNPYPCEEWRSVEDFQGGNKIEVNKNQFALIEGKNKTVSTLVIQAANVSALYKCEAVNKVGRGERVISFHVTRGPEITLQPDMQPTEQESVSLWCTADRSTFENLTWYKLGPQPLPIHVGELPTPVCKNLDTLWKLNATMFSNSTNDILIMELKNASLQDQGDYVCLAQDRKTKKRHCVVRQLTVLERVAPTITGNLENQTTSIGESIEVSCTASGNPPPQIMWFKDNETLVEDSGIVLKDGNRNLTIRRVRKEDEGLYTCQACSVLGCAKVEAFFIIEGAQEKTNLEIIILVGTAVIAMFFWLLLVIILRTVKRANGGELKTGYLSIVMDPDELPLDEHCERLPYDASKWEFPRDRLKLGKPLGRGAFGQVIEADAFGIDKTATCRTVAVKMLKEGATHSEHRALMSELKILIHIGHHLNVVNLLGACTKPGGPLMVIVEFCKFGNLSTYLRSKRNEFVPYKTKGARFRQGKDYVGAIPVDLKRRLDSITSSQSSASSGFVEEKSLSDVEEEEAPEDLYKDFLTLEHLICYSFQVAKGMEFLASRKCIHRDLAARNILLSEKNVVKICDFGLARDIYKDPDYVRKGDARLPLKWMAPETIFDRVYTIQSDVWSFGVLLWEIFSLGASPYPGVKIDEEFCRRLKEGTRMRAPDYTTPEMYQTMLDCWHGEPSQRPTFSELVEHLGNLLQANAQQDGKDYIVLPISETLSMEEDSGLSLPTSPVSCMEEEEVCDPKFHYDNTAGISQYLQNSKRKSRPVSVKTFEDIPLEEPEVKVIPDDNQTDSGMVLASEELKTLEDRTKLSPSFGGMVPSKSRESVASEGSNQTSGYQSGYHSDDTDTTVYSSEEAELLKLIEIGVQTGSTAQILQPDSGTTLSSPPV
Sequence of Mast/stem cell growth factor receptor Kit (P10721 whole entry): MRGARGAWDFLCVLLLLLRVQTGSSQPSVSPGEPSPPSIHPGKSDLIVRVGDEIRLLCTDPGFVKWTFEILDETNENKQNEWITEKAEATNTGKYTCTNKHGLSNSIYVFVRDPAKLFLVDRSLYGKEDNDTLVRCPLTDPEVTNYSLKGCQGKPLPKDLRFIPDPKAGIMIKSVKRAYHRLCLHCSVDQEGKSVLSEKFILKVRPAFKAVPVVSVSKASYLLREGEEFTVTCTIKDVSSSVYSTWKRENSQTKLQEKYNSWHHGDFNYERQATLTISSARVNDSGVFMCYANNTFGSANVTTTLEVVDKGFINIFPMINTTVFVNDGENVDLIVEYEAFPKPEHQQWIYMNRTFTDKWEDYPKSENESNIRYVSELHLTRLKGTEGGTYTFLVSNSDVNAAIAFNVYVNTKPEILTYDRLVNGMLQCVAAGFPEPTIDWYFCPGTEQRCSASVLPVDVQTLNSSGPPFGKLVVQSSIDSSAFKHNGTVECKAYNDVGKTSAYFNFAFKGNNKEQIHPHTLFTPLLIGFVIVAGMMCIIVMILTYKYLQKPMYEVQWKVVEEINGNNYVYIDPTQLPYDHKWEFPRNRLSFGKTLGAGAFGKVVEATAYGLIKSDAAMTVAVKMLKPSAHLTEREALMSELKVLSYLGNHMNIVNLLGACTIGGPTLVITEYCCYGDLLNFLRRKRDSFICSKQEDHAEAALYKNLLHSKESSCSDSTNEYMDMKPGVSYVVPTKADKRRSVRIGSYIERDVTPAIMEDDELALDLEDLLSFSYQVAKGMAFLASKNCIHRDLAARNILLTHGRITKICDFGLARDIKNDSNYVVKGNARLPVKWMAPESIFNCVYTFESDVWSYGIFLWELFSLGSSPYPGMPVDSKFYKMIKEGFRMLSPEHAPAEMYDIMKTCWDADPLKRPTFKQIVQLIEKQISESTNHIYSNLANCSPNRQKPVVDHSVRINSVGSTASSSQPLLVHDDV
Sequence of Macrophage colony-stimulating factor 1 receptor (P07333 whole entry): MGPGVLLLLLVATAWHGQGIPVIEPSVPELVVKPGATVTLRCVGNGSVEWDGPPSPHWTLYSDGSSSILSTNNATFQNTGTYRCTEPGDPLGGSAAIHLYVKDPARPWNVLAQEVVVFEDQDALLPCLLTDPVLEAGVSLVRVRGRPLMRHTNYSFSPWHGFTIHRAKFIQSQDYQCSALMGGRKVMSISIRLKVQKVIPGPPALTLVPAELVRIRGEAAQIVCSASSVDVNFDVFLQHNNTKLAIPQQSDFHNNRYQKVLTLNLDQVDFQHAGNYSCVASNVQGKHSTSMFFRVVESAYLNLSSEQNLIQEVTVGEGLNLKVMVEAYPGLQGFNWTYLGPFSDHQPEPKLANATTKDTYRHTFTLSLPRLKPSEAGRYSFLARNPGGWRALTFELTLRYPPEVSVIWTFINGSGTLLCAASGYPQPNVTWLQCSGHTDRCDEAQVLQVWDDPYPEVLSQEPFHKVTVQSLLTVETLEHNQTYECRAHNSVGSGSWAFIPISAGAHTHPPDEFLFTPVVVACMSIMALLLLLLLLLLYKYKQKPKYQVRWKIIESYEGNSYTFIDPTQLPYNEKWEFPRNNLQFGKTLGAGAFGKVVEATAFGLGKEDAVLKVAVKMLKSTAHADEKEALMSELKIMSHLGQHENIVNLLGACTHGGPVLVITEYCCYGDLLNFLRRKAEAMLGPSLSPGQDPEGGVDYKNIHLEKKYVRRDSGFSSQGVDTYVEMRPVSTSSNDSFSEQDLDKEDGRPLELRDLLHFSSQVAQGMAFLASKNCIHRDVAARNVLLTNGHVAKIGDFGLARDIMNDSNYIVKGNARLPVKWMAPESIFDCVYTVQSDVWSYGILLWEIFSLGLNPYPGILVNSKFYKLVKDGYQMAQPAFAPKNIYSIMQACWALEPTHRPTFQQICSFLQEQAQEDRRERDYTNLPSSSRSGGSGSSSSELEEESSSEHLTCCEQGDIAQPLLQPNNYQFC
Sequence of Tyrosine-protein kinase Fyn (P06241 whole entry): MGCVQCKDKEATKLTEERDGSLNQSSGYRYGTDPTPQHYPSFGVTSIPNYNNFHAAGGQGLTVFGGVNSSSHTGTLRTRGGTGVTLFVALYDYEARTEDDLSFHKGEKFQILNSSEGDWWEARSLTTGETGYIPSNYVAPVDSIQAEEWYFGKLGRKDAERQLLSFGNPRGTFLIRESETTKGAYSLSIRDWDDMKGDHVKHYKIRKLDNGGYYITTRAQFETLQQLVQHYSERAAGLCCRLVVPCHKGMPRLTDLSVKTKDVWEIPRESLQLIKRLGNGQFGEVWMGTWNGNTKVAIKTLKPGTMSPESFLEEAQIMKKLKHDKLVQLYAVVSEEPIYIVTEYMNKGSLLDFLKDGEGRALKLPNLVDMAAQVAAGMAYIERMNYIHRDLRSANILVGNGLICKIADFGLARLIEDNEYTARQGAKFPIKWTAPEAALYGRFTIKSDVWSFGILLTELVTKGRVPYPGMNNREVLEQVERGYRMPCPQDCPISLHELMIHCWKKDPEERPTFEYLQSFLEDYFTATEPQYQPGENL

Structure (SMILES): Cc1ccc(F)c(NC(=O)Nc2ccc(-c3cncc4c3c(N)nn4C)cc2)c1
- clearance [1]: 11.5 mL/min/kg
- Vd [2]: 1.48 L/kg
- AUC [3]: 30.2 µM·h
- bioavailability [4]: 81%
- half-life [5]: 90 min
- IC50 [6]: 7.7 nM
- IC50 [7]: 3 nM
- inhibition in vivo at 10 mg/kg (Mus musculus): 72%

Structure (SMILES): Cc1cccc(NC(=O)Nc2ccc(-c3cncc4[nH]nc(N)c34)cc2)c1
- inhibition in vivo at 10 mg/kg (Mus musculus): 50%

Structure (SMILES): Cn1nc(N)c2c(-c3ccc(NC(=O)Nc4ccc(F)c(C(F)(F)F)c4)cc3)cncc21
- inhibition in vivo at 10 mg/kg (Mus musculus): 59%

Structure (SMILES): Cc1ccc(F)c(NC(=O)Nc2ccc(-c3cncc4[nH]nc(N)c34)cc2)c1
- solubility [8]: 5.8 µM (≈ 2.18 µg/mL)
- inhibition in vivo at 10 mg/kg (Mus musculus): 98%

Structure (SMILES): Cc1ccc(F)c(NC(=O)Nc2ccc(-c3cccc4[nH]nc(N)c34)cc2)c1 [LINIFANIB]
- solubility [8]: 0.07 µM (≈ 0.0263 µg/mL)

Structure (SMILES): Nc1n[nH]c2cncc(-c3ccc(NC(=O)Nc4cccc(Cl)c4)cc3)c12
- inhibition in vivo at 10 mg/kg (Mus musculus): < 5%

Structure (SMILES): Cc1ccc(F)c(NC(=O)Nc2ccc(-c3nccc4[nH]nc(N)c34)cc2)c1
- solubility [8]: 9.5 µM (≈ 3.58 µg/mL)
- inhibition in vivo at 10 mg/kg (Mus musculus): < 5%

Structure (SMILES): Cc1cc(C)cc(NC(=O)Nc2ccc(-c3nccc4[nH]nc(N)c34)cc2)c1
- clearance [1]: 43.7 mL/min/kg
- Vd [2]: 1.71 L/kg
- AUC [3]: 0.89 µM·h
- bioavailability [4]: 9%
- half-life [5]: 27 min
- inhibition in vivo at 10 mg/kg (Mus musculus): < 5%

Structure (SMILES): Nc1n[nH]c2nccc(-c3ccc(NC(=O)Nc4ccc(F)c(Cl)c4)cc3)c12
- inhibition in vivo at 10 mg/kg (Mus musculus): 55%

Structure (SMILES): Nc1n[nH]c2nccc(-c3ccc(NC(=O)Nc4cccc(C(F)(F)F)c4)cc3)c12
- IC50 [9]: 3 nM
- IC50 [10]: 7 nM
- IC50 [11]: 11800 nM
- IC50 [12]: 2 nM
- IC50 [13]: 5 nM

Structure (SMILES): Cn1nc(N)c2c(-c3ccc(NC(=O)Nc4cccc(Cl)c4)cc3)cncc21
- inhibition in vivo at 10 mg/kg (Mus musculus): 52%

Structure (SMILES): Cc1cccc(NC(=O)Nc2ccc(-c3cncc4c3c(N)nn4C)cc2)c1
- clearance [1]: 12.7 mL/min/kg
- Vd [2]: 0.66 L/kg
- AUC [3]: 25 µM·h
- bioavailability [4]: 71%
- half-life [5]: 36 min
- inhibition in vivo at 10 mg/kg (Mus musculus): 79%

Structure (SMILES): Nc1n[nH]c2ccnc(-c3ccc(NC(=O)Nc4cccc(C(F)(F)F)c4)cc3)c12
- inhibition in vivo at 10 mg/kg (Mus musculus): < 5%

Structure (SMILES): Cc1cc(NC(=O)Nc2ccc(-c3cncc4[nH]nc(N)c34)cc2)ccc1F
- inhibition in vivo at 10 mg/kg (Mus musculus): 19%

Structure (SMILES): Cc1ccc(NC(=O)Nc2ccc(-c3ccnc4[nH]nc(N)c34)cc2)cc1
- inhibition in vivo at 10 mg/kg (Mus musculus): < 5%

Structure (SMILES): Nc1n[nH]c2nccc(-c3ccc(NC(=O)Nc4cccc(Cl)c4)cc3)c12
- solubility [8]: 1.6 µM (≈ 0.606 µg/mL)
- inhibition in vivo at 10 mg/kg (Mus musculus): 23%

Structure (SMILES): Cc1ccccc1NC(=O)Nc1ccc(-c2ccnc3[nH]nc(N)c23)cc1
- IC50 [6]: 35 nM
- IC50 [7]: 2.2 nM
- inhibition in vivo at 10 mg/kg (Mus musculus): < 5%

Structure (SMILES): Nc1n[nH]c2nccc(-c3ccc(NC(=O)Nc4ccccc4)cc3)c12
- inhibition in vivo at 10 mg/kg (Mus musculus): 39%

Structure (SMILES): Cc1cc(C)cc(NC(=O)Nc2ccc(-c3ccnc4[nH]nc(N)c34)cc2)c1
- inhibition in vivo at 10 mg/kg (Mus musculus): 77%

Structure (SMILES): Nc1n[nH]c2cncc(-c3ccc(NC(=O)Nc4cc(C(F)(F)F)ccc4F)cc3)c12
- inhibition in vivo at 10 mg/kg (Mus musculus): 35%

Structure (SMILES): Cc1cc(NC(=O)Nc2ccc(-c3ccnc4[nH]nc(N)c34)cc2)ccc1F
- inhibition in vivo at 10 mg/kg (Mus musculus): 108%

Structure (SMILES): Cc1cc(NC(=O)Nc2ccc(-c3nccc4[nH]nc(N)c34)cc2)ccc1F
- inhibition in vivo at 10 mg/kg (Mus musculus): < 5%

Structure (SMILES): Cc1ccc(F)c(NC(=O)Nc2ccc(-c3ccnc4[nH]nc(N)c34)cc2)c1
- clearance [1]: 17.3 mL/min/kg
- Vd [2]: 1.5 L/kg
- AUC [3]: 15.7 µM·h
- bioavailability [4]: 62%
- half-life [5]: 60 min
- inhibition in vivo at 10 mg/kg (Mus musculus): 66%
